Earlier results on 4 compounds are cited in patent publication US9060950B2, “Emetic embedded capsule” (Paul H. Rosenberg, Proximate Concepts, LLC., priority 2005, dated 2015).

Assay in data set [1]: not given
This is another data set of the same source.

Counter-ions that a name gives are not always drawn.

Turning to `Cc1nnc2n1-c1ccc(Cl)cc1C(c1ccccc1Cl)=NC2` [Triazolm], for the setting “ingestion”, the “amount ingested after which manifestations of overdose may occur” value is listed as 2 mg.
Take `CC(=O)Nc1ccc(O)cc1` [acetaminophen, Acetaminophen]: the “amount ingested following which hepatic toxicity may occur” value (in vivo) is 7.5 grams. For the same compound, where the note is “ingestion”, the “amount ingested following which fatalities may occur” value was 15 grams.
Consider `CNCCC(Oc1ccc(C(F)(F)F)cc1)c1ccccc1` (centres unmarked) [fluoxetine hydrochloride, Fluoxetine hydrochloride], for which, where the note is “ingestion”, the “ingested amount reported to have caused death” value is given as 520 mg.
Take `O.O.O.O.O.O.O.O=S(=O)([O-])[O-].[Zn+2]` [Zinc sulfate heptahydrate]: the “amount ingested that causes emesis” value in data set [1] was 0.6 grams.
